The values below are quoted from earlier work in patent publication US4537898A, “Liquid formulations of dihydropyridines” (priority 1983, dated 1985).

Consider `COCCOC(=O)C1=C(C)NC(C)=C(C(=O)OC(C)C)C1c1cccc([N+](=O)[O-])c1` (stereo not shown) [nimodipine, Nimodipine], for which the solubility in water was 0.2 mg per 100 ml.
